Assay results as given in US20090143279A1 (priority 2007, published 2009).
Read-outs that look alike come from different tables or passages of the source.

Assays:
[1] = system: mitochondrial membrane potential; assay type: cell-based, mouse; conditions: for ΔΨm (composite Z-score): normalized score vs mock-treated (DMSO) wells
reactive oxygen species = assay type: cell-based, mouse; conditions: for ROS (composite Z-score): normalized score vs mock-treated (DMSO) wells
cytochrome c = assay type: cell-based, mouse; conditions: for cyt c (composite Z-score): normalized score vs mock-treated (DMSO) wells
nuOXPHOS transcripts = assay type: cell-based, mouse; conditions: for nucOX (composite Z-score): normalized score vs mock-treated (DMSO) wells
OXPHOS gene expression = assay type: cell-based, mouse; conditions: for GE-HTS (composite Z-score): normalized score vs mock-treated (DMSO) wells
[2] = system: cellular dehydrogenase activity; conditions: for MTT (composite Z-score): normalized score vs mock-treated (DMSO) wells
mtOXPHOS transcripts = assay type: cell-based, mouse; conditions: for mitoOX (composite Z-score): normalized score vs mock-treated (DMSO) wells
C2C12 myotubes = conditions: for Viability (composite Z-score): normalized score vs mock-treated (DMSO) wells
[3] = composite Z-score vs DMSO, Conc 20 μM
[4] = composite Z-score vs mock-treated (DMSO) wells, Conc 20 μM
[5] = 20 μM, composite Z-score vs DMSO
[6] = composite Z-score vs mock-treated (DMSO) wells, concentration of each compound in μM
[7] = normalized composite Z-score vs mock-treated (DMSO) wells, Conc 20 μM

Sequence of cytochrome c (P62897 whole entry): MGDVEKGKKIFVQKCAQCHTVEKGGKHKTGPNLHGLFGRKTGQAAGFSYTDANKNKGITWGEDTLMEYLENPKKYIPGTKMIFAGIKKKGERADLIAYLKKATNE

CC1=C(CCC(=O)O)c2cc3[nH]c(cc4nc(cc5[nH]c(cc1n2)c(C)c5C(C)O)C(C)=C4C(C)O)c(C)c3CCC(=O)O (centres unmarked) [haematoporphyrin]
ΔΨm [1, 3]: −3.662 | ROS (reactive oxygen species; [3]): 1.666 | cyt c (cytochrome c; [3]): 0.324 | nucOX (nuOXPHOS transcripts; [3]): 0.251 | GE-HTS (OXPHOS gene expression; [3]): 0.309 | MTT [2, 3]: −3.312 | mitoOX (mtOXPHOS transcripts; [3]): 0.416 | Viability (C2C12 myotubes; [3]): −1.933

C=C(C)c1cc2cc(C(C)=O)c(O)cc2o1 [euparin]
ΔΨm [1, 4]: −0.010 | ROS (reactive oxygen species; [4]): 0.795 | cyt c (cytochrome c; [4]): 0.419 | nucOX (nuOXPHOS transcripts; [4]): 1.293 | GE-HTS (OXPHOS gene expression; [4]): 1.120 | MTT [2, 4]: −0.912 | mitoOX (mtOXPHOS transcripts; [4]): 0.484 | Viability (C2C12 myotubes; [4]): 0.021

Nc1ccc(C(=O)[O-])cc1.[K+] [potassium p-aminobenzoate]
ΔΨm [1, 5]: −0.826 | ROS (reactive oxygen species; [5]): 0.818 | cyt c (cytochrome c; [5]): 0.519 | nucOX (nuOXPHOS transcripts; [5]): −1.085 | GE-HTS (OXPHOS gene expression; [5]): −1.001 | MTT [2, 5]: −1.445 | mitoOX (mtOXPHOS transcripts; [5]): −0.673 | Viability (C2C12 myotubes; [5]): −0.277

c1ccc2c3c([nH]c2c1)[C@H]1[C@H]2CC[C@H]([C@@H]4CCCN[C@@H]42)N1CC3 [nitrarine]
ΔΨm [1, 6]: −0.986 | ROS (reactive oxygen species; [6]): 0.458 | cyt c (cytochrome c; [6]): 0.040 | nucOX (nuOXPHOS transcripts; [6]): −0.303 | GE-HTS (OXPHOS gene expression; [6]): −0.352 | MTT [2, 6]: −1.978 | mitoOX (mtOXPHOS transcripts; [6]): −0.378 | Viability (C2C12 myotubes; [6]): −0.068

COc1ccc(-c2coc3c(O)c(OC)ccc3c2=O)cc1 [retusin 7-methyl ether]
ΔΨm [1, 3]: −0.603 | ROS (reactive oxygen species; [3]): 0.088 | cyt c (cytochrome c; [3]): 0.412 | nucOX (nuOXPHOS transcripts; [3]): 0.765 | GE-HTS (OXPHOS gene expression; [3]): 0.788 | MTT [2, 3]: −0.627 | mitoOX (mtOXPHOS transcripts; [3]): 0.631 | Viability (C2C12 myotubes; [3]): −0.245

CC(=O)Oc1ccccc1C(=O)Oc1ccccc1C(=O)O [diplosalsalate]
ΔΨm (composite Z-score) ([1]; Conc 20 μM): 0.008 | ROS (composite Z-score) (reactive oxygen species; Conc 20 μM): 0.306 | cyt c (composite Z-score) (cytochrome c; Conc 20 μM): 0.787 | nucOX (composite Z-score) (nuOXPHOS transcripts; Conc 20 μM): −0.994 | GE-HTS (composite Z-score) (OXPHOS gene expression; Conc 20 μM): −1.001 | MTT (composite Z-score) ([2]; Conc 20 μM): −0.860 | mitoOX (composite Z-score) (mtOXPHOS transcripts; Conc 20 μM): −0.766 | Viability (composite Z-score) (C2C12 myotubes; Conc 20 μM): −0.204

COC1CC(C)C2OC2CC(C)C2CC(C)(C)C12 (centres unmarked)
ΔΨm [1, 7]: −0.699 | ROS (reactive oxygen species; [7]): 0.120 | cyt c (cytochrome c; [7]): 0.933 | nucOX (nuOXPHOS transcripts; [7]): −0.466 | GE-HTS (OXPHOS gene expression; [7]): −0.497 | MTT [2, 7]: −0.794 | mitoOX (mtOXPHOS transcripts; [7]): −0.439 | Viability (C2C12 myotubes; [7]): −1.011

CC(=O)OC1CC2C(C)(C)[C@@H](O)CC[C@]2(C)C2CC[C@]3(C)[C@H](c4ccoc4)OC(=O)[C@H]4O[C@]43[C@]12C (stereo partly drawn) [3beta-hydroxydeoxodihydrogedunin]
ΔΨm [1, 4]: 0.674 | ROS (reactive oxygen species; [4]): 0.170 | cyt c (cytochrome c; [4]): 0.591 | nucOX (nuOXPHOS transcripts; [4]): −0.648 | GE-HTS (OXPHOS gene expression; [4]): −0.585 | MTT [2, 4]: −0.540 | mitoOX (mtOXPHOS transcripts; [4]): −0.302 | Viability (C2C12 myotubes; [4]): −0.364

C=CC(C)(O)CCC=C(C)C (single isomer, unassigned; (+)) [(+)-linalool]
ΔΨm (composite Z-score) ([1]; Conc 20 μM): −0.810 | ROS (composite Z-score) (reactive oxygen species; Conc 20 μM): 0.481 | cyt c (composite Z-score) (cytochrome c; Conc 20 μM): 0.690 | nucOX (composite Z-score) (nuOXPHOS transcripts; Conc 20 μM): 0.131 | GE-HTS (composite Z-score) (OXPHOS gene expression; Conc 20 μM): −0.007 | MTT (composite Z-score) ([2]; Conc 20 μM): −1.338 | mitoOX (composite Z-score) (mtOXPHOS transcripts; Conc 20 μM): −0.342 | Viability (composite Z-score) (C2C12 myotubes; Conc 20 μM): −0.653

C=CCc1ccc(O)c(OC)c1 [eugenol]
ΔΨm [1, 5]: −0.816 | ROS (reactive oxygen species; [5]): 1.068 | cyt c (cytochrome c; [5]): 0.307 | nucOX (nuOXPHOS transcripts; [5]): −0.166 | GE-HTS (OXPHOS gene expression; [5]): −0.254 | MTT [2, 5]: −0.243 | mitoOX (mtOXPHOS transcripts; [5]): −0.320 | Viability (C2C12 myotubes; [5]): −0.943

3,7-epoxycaryophyllan-6-one
ΔΨm [1, 7]: −1.003 | ROS (reactive oxygen species; [7]): 0.603 | cyt c (cytochrome c; [7]): 0.131 | nucOX (nuOXPHOS transcripts; [7]): −0.824 | GE-HTS (OXPHOS gene expression; [7]): −0.812 | MTT [2, 7]: −0.698 | mitoOX (mtOXPHOS transcripts; [7]): −0.595 | Viability (C2C12 myotubes; [7]): 0.433

c1cncc(C2=NCCC2)c1 [myosmine]
ΔΨm (composite Z-score) ([1]; Conc 27.36 μM): 0.326 | ROS (composite Z-score) (reactive oxygen species; Conc 27.36 μM): 1.543 | cyt c (composite Z-score) (cytochrome c; Conc 27.36 μM): 1.184 | nucOX (composite Z-score) (nuOXPHOS transcripts; Conc 27.36 μM): 0.712 | GE-HTS (composite Z-score) (OXPHOS gene expression; Conc 27.36 μM): 0.445 | MTT (composite Z-score) ([2]; Conc 27.36 μM): −1.423 | mitoOX (composite Z-score) (mtOXPHOS transcripts; Conc 27.36 μM): −0.195 | Viability (composite Z-score) (C2C12 myotubes; Conc 27.36 μM): −0.497

CC1(C)C2CC(=O)[C@]3(C)C(CC[C@@]4(C)[C@H](c5ccoc5)OC(=O)[C@H]5O[C@]543)[C@@]2(C)C(=O)C[C@H]1O (some centres unmarked)
ΔΨm [1, 7]: −0.335 | ROS (reactive oxygen species; [7]): 0.122 | cyt c (cytochrome c; [7]): 0.113 | nucOX (nuOXPHOS transcripts; [7]): −0.866 | GE-HTS (OXPHOS gene expression; [7]): −0.911 | MTT [2, 7]: −1.103 | mitoOX (mtOXPHOS transcripts; [7]): −0.875 | Viability (C2C12 myotubes; [7]): −0.023
